Source: PubChem BioAssay (NCI)
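In this assay, cells in 96-well plates receive the compound at five concentrations for 48 hours. Endpoints are linearly interpolated between the surrounding concentrations. TGI: concentration producing complete growth inhibition.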

Columns and labels:
Assay in all cases: NCI tumour cell line growth inhibition, 48 h
786-0 renal = system: 786-0 renal
A498 renal = system: A498 renal
A549 NSCLC = system: A549 NSCLC
ACHN renal = system: ACHN renal
BT-549 breast = system: BT-549 breast
CAKI-1 renal = system: CAKI-1 renal
CCRF-CEM leukemia = system: CCRF-CEM leukemia
COLO 205 colon = system: COLO 205 colon
DU-145 prostate = system: DU-145 prostate
EKVX NSCLC = system: EKVX NSCLC
HCC-2998 colon = system: HCC-2998 colon
HCT-116 colon = system: HCT-116 colon
HCT-15 colon = system: HCT-15 colon
HOP-62 NSCLC = system: HOP-62 NSCLC
HOP-92 NSCLC = system: HOP-92 NSCLC
HS 578T breast = system: HS 578T breast
HT29 colon = system: HT29 colon
K-562 leukemia = system: K-562 leukemia
KM12 colon = system: KM12 colon
LOX IMVI melanoma = system: LOX IMVI melanoma
M14 melanoma = system: M14 melanoma
MALME-3M melanoma = system: MALME-3M melanoma
MCF7 breast = system: MCF7 breast
MDA-MB-231 breast = system: MDA-MB-231 breast
MDA-MB-435 = system: MDA-MB-435
MDA-N = system: MDA-N
MOLT-4 leukemia = system: MOLT-4 leukemia
NCI-H226 lung = system: NCI-H226 lung
NCI-H23 lung = system: NCI-H23 lung
NCI-H460 lung = system: NCI-H460 lung
NCI-H522 lung = system: NCI-H522 lung
NCI/ADR-RES ovarian = system: NCI/ADR-RES ovarian
OVCAR-3 ovarian = system: OVCAR-3 ovarian
OVCAR-4 ovarian = system: OVCAR-4 ovarian
OVCAR-5 ovarian = system: OVCAR-5 ovarian
OVCAR-8 ovarian = system: OVCAR-8 ovarian
PC-3 prostate = system: PC-3 prostate
RPMI-8226 leukemia = system: RPMI-8226 leukemia
RXF 393 renal = system: RXF 393 renal
SF-268 CNS = system: SF-268 CNS
SF-295 CNS = system: SF-295 CNS
SF-539 CNS = system: SF-539 CNS
SK-MEL-2 melanoma = system: SK-MEL-2 melanoma
SK-MEL-28 melanoma = system: SK-MEL-28 melanoma
SK-MEL-5 melanoma = system: SK-MEL-5 melanoma
SK-OV-3 ovarian = system: SK-OV-3 ovarian
SN12C renal = system: SN12C renal
SNB-19 CNS = system: SNB-19 CNS
SNB-75 CNS = system: SNB-75 CNS
SW-620 colon = system: SW-620 colon
T-47D breast = system: T-47D breast
TK-10 renal = system: TK-10 renal
U251 CNS = system: U251 CNS
UO-31 renal = system: UO-31 renal
HL-60(TB) leukemia = system: HL-60(TB) leukemia
IGROV1 ovarian = system: IGROV1 ovarian
SR leukemia = system: SR leukemia
UACC-257 melanoma = system: UACC-257 melanoma
UACC-62 melanoma = system: UACC-62 melanoma

COc1ccc(NC(C)c2ccncc2)cc1 (centres undefined)
TGI (786-0 renal): > 100 µM
TGI (A498 renal): > 100 µM
TGI (A549 NSCLC): > 100 µM
TGI (ACHN renal): > 100 µM
TGI (BT-549 breast): > 100 µM
TGI (CAKI-1 renal): > 100 µM
TGI (CCRF-CEM leukemia): > 100 µM
TGI (COLO 205 colon): > 100 µM
TGI (DU-145 prostate): > 100 µM
TGI (EKVX NSCLC): > 100 µM
TGI (HCC-2998 colon): > 100 µM
TGI (HCT-116 colon): > 100 µM
TGI (HCT-15 colon): > 100 µM
TGI (HOP-62 NSCLC): > 100 µM
TGI (HOP-92 NSCLC): > 100 µM
TGI (HS 578T breast): > 100 µM
TGI (HT29 colon): > 100 µM
TGI (K-562 leukemia): > 100 µM
TGI (KM12 colon): > 100 µM
TGI (LOX IMVI melanoma): > 100 µM
TGI (M14 melanoma): > 100 µM
TGI (MALME-3M melanoma): > 100 µM
TGI (MCF7 breast): > 100 µM
TGI (MDA-MB-231 breast): > 100 µM
TGI (MDA-MB-435): > 100 µM
TGI (MDA-N): > 100 µM
TGI (MOLT-4 leukemia): > 100 µM
TGI (NCI-H226 lung): > 100 µM
TGI (NCI-H23 lung): > 100 µM
TGI (NCI-H460 lung): > 100 µM
TGI (NCI-H522 lung): > 100 µM
TGI (NCI/ADR-RES ovarian): > 100 µM
TGI (OVCAR-3 ovarian): > 100 µM
TGI (OVCAR-4 ovarian): > 100 µM
TGI (OVCAR-5 ovarian): > 100 µM
TGI (OVCAR-8 ovarian): > 100 µM
TGI (PC-3 prostate): > 100 µM
TGI (RPMI-8226 leukemia): > 100 µM
TGI (RXF 393 renal): > 100 µM
TGI (SF-268 CNS): > 100 µM
TGI (SF-295 CNS): > 100 µM
TGI (SF-539 CNS): > 100 µM
TGI (SK-MEL-2 melanoma): > 100 µM
TGI (SK-MEL-28 melanoma): > 100 µM
TGI (SK-MEL-5 melanoma): > 100 µM
TGI (SK-OV-3 ovarian): 65 µM
TGI (SN12C renal): > 100 µM
TGI (SNB-19 CNS): > 100 µM
TGI (SNB-75 CNS): > 100 µM
TGI (SW-620 colon): > 100 µM
TGI (T-47D breast): > 100 µM
TGI (TK-10 renal): > 100 µM
TGI (U251 CNS): > 100 µM
TGI (UO-31 renal): > 100 µM

Cc1c(-c2ccccc2)[nH]n(C2=NCCN2)c1=O
TGI (786-0 renal): > 100 µM
TGI (A498 renal): > 100 µM
TGI (A549 NSCLC): > 100 µM
TGI (ACHN renal): > 100 µM
TGI (BT-549 breast): > 100 µM
TGI (CAKI-1 renal): > 100 µM
TGI (CCRF-CEM leukemia): > 100 µM
TGI (COLO 205 colon): > 100 µM
TGI (EKVX NSCLC): > 100 µM
TGI (HCT-116 colon): > 100 µM
TGI (HCT-15 colon): > 100 µM
TGI (HL-60(TB) leukemia): > 100 µM
TGI (HOP-62 NSCLC): > 100 µM
TGI (HOP-92 NSCLC): > 100 µM
TGI (HS 578T breast): > 100 µM
TGI (HT29 colon): > 100 µM
TGI (IGROV1 ovarian): > 100 µM
TGI (K-562 leukemia): > 100 µM
TGI (KM12 colon): > 100 µM
TGI (LOX IMVI melanoma): > 100 µM
TGI (M14 melanoma): > 100 µM
TGI (MALME-3M melanoma): > 100 µM
TGI (MCF7 breast): > 100 µM
TGI (MDA-MB-231 breast): > 100 µM
TGI (MDA-MB-435): > 100 µM
TGI (MDA-N): > 100 µM
TGI (MOLT-4 leukemia): > 100 µM
TGI (NCI-H226 lung): > 100 µM
TGI (NCI-H23 lung): > 100 µM
TGI (NCI-H460 lung): > 100 µM
TGI (NCI-H522 lung): > 100 µM
TGI (NCI/ADR-RES ovarian): > 100 µM
TGI (OVCAR-3 ovarian): > 100 µM
TGI (OVCAR-4 ovarian): > 100 µM
TGI (OVCAR-5 ovarian): > 100 µM
TGI (OVCAR-8 ovarian): > 100 µM
TGI (PC-3 prostate): > 100 µM
TGI (RPMI-8226 leukemia): > 100 µM
TGI (RXF 393 renal): > 100 µM
TGI (SF-268 CNS): > 100 µM
TGI (SF-295 CNS): > 100 µM
TGI (SF-539 CNS): > 100 µM
TGI (SK-MEL-2 melanoma): > 100 µM
TGI (SK-MEL-5 melanoma): > 100 µM
TGI (SK-OV-3 ovarian): > 100 µM
TGI (SNB-19 CNS): > 100 µM
TGI (SNB-75 CNS): > 100 µM
TGI (SR leukemia): > 100 µM
TGI (SW-620 colon): > 100 µM
TGI (T-47D breast): > 100 µM
TGI (TK-10 renal): > 100 µM
TGI (U251 CNS): > 100 µM
TGI (UACC-257 melanoma): > 100 µM
TGI (UACC-62 melanoma): > 100 µM
TGI (UO-31 renal): > 100 µM
